For assay [1], the target named is T1, Glutamate receptor ionotropic, AMPA (Rattus norvegicus, UniProt P19490+P19491+P19492+P19493). Kind of assay: Ability to block kainate-induced 45 [Ca2+] influx through functional assay of Ionotropic glutamate receptor AMPA activity in rat cerebellar granule cells.
For assay [2], the target named is T1, Glutamate receptor ionotropic, AMPA. Kind of assay: Evaluated in patch clamp electrophysiology study for its selectively evoked Ionotropic glutamate receptor AMPA mediated inward currents. A general note: Patch clamp records ionic current or voltage across a cell membrane.
For assay [3], the species on record is Rattus norvegicus. The experiment in a line: Evaluated in patch clamp electrophysiology study for its selectively evoked AMPA and NMDA (glutamate receptors) mediated inward currents reduction. It is filed as functional.
The test system of assay [4] is Rattus norvegicus. Kind of assay: Evaluated in vivo for the reduction in the population spike amplitude in the CA3 region of the hippocampus in anesthetized rat at a dose of 2 mg/kg (iv). It is filed as functional.
Assay [5] has as its system Mus musculus. The experiment in a line: Blockade of ivc AMPA induced seizures in mice on subcutaneous administration (95%CI). The class given is functional.
The subject of assay [6] is Mus musculus. Kind of assay: Blockade of pentylenetetrazole induced seizures in mice on subcutaneous administration (95% CI). The class given is functional.
Assay [7] has as its system Mus musculus. The experiment in a line: Minimum effective dose in mice on subcutaneous administration. The class given is functional.
Assay [8] has as its target T1, Glutamate receptor ionotropic, AMPA. The experiment in a line: Ability to block kainate-induced 45 [Ca2+] influx through functional assay of Ionotropic glutamate receptor AMPA activity in rat cerebellar granule cells.
In assay [9] the test system is Mus musculus. Kind of assay: Blockade of pentylenetetrazole induced seizures in mice on subcutaneous administration. It is filed as functional. The conditions noted are these: sc, read-out: ID50 (the source's name).

A word on the IC50: it is the concentration at which inhibition is half-maximal. A low value points to higher potency.

`COC(=O)c1cccc(/C=C/c2nc3ccc(F)cc3c(=O)n2-c2ccccc2Cl)n1` showed an IC50 in assay [1] of 400 nM.

On to `O=c1c2ccccc2nc(/C=C/c2ccccn2)n1-c1ccccc1`, for which the IC50 in [1] is above 1000 nM.

In the case of `CNCc1cccc(/C=C/c2nc3ccc(F)cc3c(=O)n2-c2ccccc2Cl)n1`, the IC50 in assay [1] came to 103 nM.

Compound `O=Cc1cccc(/C=C/c2nc3ccc(F)cc3c(=O)n2-c2ccccc2Cl)n1` had an IC50 in assay [1] of 97 nM.

For the compound `COc1cccc2c(=O)n(-c3ccccc3C)c(/C=C/c3ccccn3)nc12`, the IC50 in assay [1] is above 1000 nM.

The compound `Cc1ccc2nc(/C=C/c3ccccn3)n(-c3ccccc3C)c(=O)c2c1` yielded an IC50 in [1] of 1370 nM.

In [1], `Cc1ccccc1-n1c(/C=C/c2ccccn2)nc2c(Cl)cc(Cl)cc2c1=O` showed an IC50 above 1000 nM.

On to `O=c1c2cc(F)ccc2nc(/C=C/c2cccc(N3CCCC3)n2)n1-c1ccccc1Cl`, for which, in assay [1], the concentration for half-maximal inhibition (IC50) turned out to be 31 nM.

For the compound `Cc1cccc(/C=C/c2nc3ccc(F)cc3c(=O)n2-c2ccccc2Cl)n1`, the IC50 in assay [1] worked out at 36 nM.

On to `CCOCc1cccc(/C=C/c2nc3ccc(F)cc3c(=O)n2-c2ccccc2Cl)n1`, for which the IC50 in [1] amounted to 82 nM. This IC50 lies about 2.3-fold higher than the previous one.

`Cc1cccc(C)c1-n1c(/C=C/c2ccccn2)nc2ccccc2c1=O` gave an IC50 in [1] above 1000 nM.

`O=c1c2cc(F)ccc2nc(/C=C/c2ccccn2)n1-c1c(F)cccc1F` registered an IC50 in assay [1] above 300 nM.

As for `NCc1cccc(/C=C/c2nc3ccc(F)cc3c(=O)n2-c2ccccc2Cl)n1`, the IC50 in [1] is 340 nM. That is a sub-micromolar value.

Regarding `N#Cc1cccc(/C=C/c2nc3ccc(F)cc3c(=O)n2-c2ccccc2Cl)n1`, inhibition in assay [1] was half-maximal at 244 nM (IC50).

Compound `Cc1ccccc1-n1c(/C=C/c2ccccn2)nc2cc(Cl)ccc2c1=O` yielded an IC50 in assay [1] above 3000 nM.

In assay [1], `CC(C)NCc1cccc(/C=C/c2nc3ccc(F)cc3c(=O)n2-c2ccccc2Cl)n1` displayed an IC50 of 59 nM. This counts as double-digit nanomolar.

`CN(C)Cc1cccc(/C=C/c2nc3ccc(F)cc3c(=O)n2-c2ccccc2Cl)n1` registered an IC50 in [1] of 178 nM.

In turn, `Cc1ccccc1-n1c(/C=C/c2ccccn2)nc2ccc(F)cc2c1=O` showed an IC50 in assay [1] of 248 nM.

Regarding `CC(=O)OCc1cccc(/C=C/c2nc3ccc(F)cc3c(=O)n2-c2ccccc2Cl)n1`, the midpoint of inhibition in assay [1], the IC50, lay at 45 nM. Compared with the last compound, the IC50 is about 5.5-fold lower.

In the case of `O=c1c2ccccc2nc(/C=C/c2ccccn2)n1-c1ccccc1F`, the IC50 in [1] worked out at 116 nM. Against the preceding compound, the IC50 is about 2.6-fold higher.

For `O=c1c2ccccc2nc(/C=C/c2ccccn2)n1-c1ccccc1Br`, in [1], the IC50 was 102 nM.

Turning to `COCc1cccc(/C=C/c2nc3ccc(F)cc3c(=O)n2-c2ccccc2Cl)n1`, half-maximal inhibition in assay [1] (IC50) required 42 nM.

In assay [1], `O=c1c2cc(F)ccc2nc(/C=C/c2ccccn2)n1-c1ccccc1F` returned an IC50 of 180 nM.

`COc1ccccc1-n1c(/C=C/c2ccccn2)nc2ccccc2c1=O` yielded an IC50 in [1] of 1100 nM. Compared with the last compound, the IC50 is about 6.1-fold higher.

As to `Cc1ccccc1-n1c(/C=C/c2ccccn2)nc2c(Cl)cccc2c1=O`, the IC50 in assay [1] was above 1000 nM.

On to `O=C(O)c1cccc(/C=C/c2nc3ccc(F)cc3c(=O)n2-c2ccccc2Cl)n1`, for which the IC50 in [1] is above 1000 nM.

In assay [1], `O=c1c2ccccc2nc(/C=C/c2ccccn2)n1-c1ccccc1Cl` returned an IC50 of 433 nM.

For `CCNCc1cccc(/C=C/c2nc3ccc(F)cc3c(=O)n2-c2ccccc2Cl)n1`, half-maximal inhibition in assay [1] (IC50) was put at 81 nM.

Compound `O=c1c2cc(F)ccc2nc(/C=C/c2ccccn2)n1-c1ccccc1Cl` registered an IC50 in [1] of 96 nM.

In turn, `O=c1c2cc(F)ccc2nc(/C=C/c2cccc(CO)n2)n1-c1ccccc1Cl` registered an IC50 in assay [1] of 58 nM. This IC50 lies about 1.7-fold lower than the previous one.

In assay [1], `O=c1c2cc(F)ccc2nc(/C=C/c2cccc(N3CCCCC3)n2)n1-c1ccccc1Cl` returned an IC50 above 300 nM.

In turn, `Cc1ccccc1-n1c(/C=C/c2ccccn2)nc2ccc(Cl)cc2c1=O` had an IC50 in assay [1] of 124 nM. This counts as sub-micromolar.

Compound `O=c1c2ccccc2nc(/C=C/c2ccccn2)n1-c1ccccc1C(F)(F)F` gave an IC50 in assay [1] of 146 nM.

In assay [1], `O=c1c2cc(F)ccc2nc(/C=C/c2cccc(CF)n2)n1-c1ccccc1Cl` registered an IC50 of 56 nM.

In turn, `COc1cccc(/C=C/c2nc3ccc(F)cc3c(=O)n2-c2ccccc2Cl)n1` displayed an IC50 in assay [1] of 31 nM.

Turning to `O=c1c2ccccc2nc(/C=C/c2ccccn2)n1-c1c(Cl)cccc1Cl`, the IC50 in [1] was above 1000 nM.

`CN(C)CCN(C)Cc1cccc(/C=C/c2nc3ccc(F)cc3c(=O)n2-c2ccccc2Cl)n1` had an IC50 in [1] of 150 nM.

`Cc1ccccc1-n1c(/C=C/c2ccccn2)nc2ccc(Br)cc2c1=O` registered an IC50 in assay [1] of 162 nM. This IC50 and that of the compound before are within 1.5-fold of each other.

Take `COc1cc2nc(/C=C/c3ccccn3)n(-c3ccccc3C)c(=O)c2cc1OC`: in [1], the IC50 was above 1000 nM.

Take `O=c1c2cc(F)ccc2nc(/C=C/c2ccccn2)n1-c1ccccc1Br`: half-maximal inhibition in assay [1] (IC50) required 65 nM. This counts as double-digit nanomolar.

As to `CCN(CC)Cc1cccc(/C=C/c2nc3ccc(F)cc3c(=O)n2-c2ccccc2Cl)n1` (stereo in doubt; 38), the values for the IC50 in assay [2] and in assay [1] were 25 nM and 74 nM, respectively. In the assay filed under Rattus norvegicus [3], this compound came in with a Reduction of 36%. The Blockade in the assay with Rattus norvegicus [4] is given as 65.1%. Besides, the ED50 in the assay on Mus musculus [5] (Mus musculus, sc, read-out: ID50 (the source's name)) came to 3.6 mg/kg. Besides, the ID50 in the assay with Mus musculus [6] was 3.8 mg/kg. Besides, in the assay with Mus musculus [7] (Mus musculus, sc, read-out: MED), the minimal effective dose came to 10 mg/kg.

`CCN(CC)Cc1cccc(/C=C/c2nc3ccc(F)cc3c(=O)n2-c2ccccc2Cl)n1` (stereo in doubt; (+)-38): in assay [8], the midpoint of inhibition, the IC50, lay at 36 nM. Also, the values for the ID50 in the assay on Mus musculus [5] and in the assay on Mus musculus [6] were 3.1 mg/kg and 1.5 mg/kg, respectively. In the assay on Mus musculus [7], this compound displayed an MED of 5.6 mg/kg.

Compound `CCN(CC)Cc1cccc(/C=C/c2nc3ccc(F)cc3c(=O)n2-c2ccccc2Cl)n1` (stereo in doubt; (-)-38) registered an IC50 in assay [8] of 0.1 nM. Moreover, the ED50 in the assay with Mus musculus [9] was 10 mg/kg.

In the case of `Cc1ccccc1-n1c(/C=C/c2ccccn2)nc2ccccc2c1=O` [PIRIQUALONE], in [1], the IC50 came out at 460 nM. This counts as sub-micromolar.
